Values after ≈ are worked out from the molar mass of the structure shown. Read-outs that look alike come from different tables or passages of the source.
What was measured:
human erythrocytes = experiment: Hemolysis assay with human erythrocytes; format: cell-based; conditions: from 10 to 80 µg/mL
Protocol: (§1) In this context, non-hemolytic compounds are essential, as they enhance the safety and efficacy of lactam-based drugs by reducing adverse effects while maintaining their antitumor activity. In accordance with EU regulations (ISO 10993-4), the assessment of the biological compatibility of new compounds that may come into contact with the blood necessitates in vitro hemocompatibility evaluations. In this study, the extent of hemolysis induced by the different compounds was assessed by incubating them with an erythrocyte suspension. The hemolytic response of compounds 1–10 was evaluated at two concentrations (10 and 80 µg/mL), the results of which are presented in Figure 3.
(§2) • In Vitro Assay Using Human Erythrocytes • - Acquisition and Extraction of the Erythrocytes Human blood samples were obtained from the Banc de Sang i Teixits de Barcelona (Spain) from the Catalan Department of Health. Blood was deposited in tubes with the anticoagulant EDTA-K3. Blood samples were centrifuged at 3000 rpm and 4 °C for 10 min (Megafuge 2.0 R. Heraeus Instruments, Hanau, Germany) to induce sedimentation. Plasma was extracted with a Pasteur pipette. Next, the residual pellet was washed with PBS at pH 7.4. This procedure was repeated three times to remove residual leukocytes and platelets and to concentrate the erythrocytes. Following the last wash, the erythrocyte suspension was diluted (1:1) in PBS at pH 7.4 to obtain a suitable erythrocyte suspension (cell density of 8 × 10^9 cell/mL). • - Hemolysis Assay The hemolysis assay determined the capability of different compounds to induce the hemolysis of the erythrocyte membrane. Stock solutions of each compound at 1 mg/mL in PBS at pH 7.4 were prepared. Different volumes (10–80 μL) were placed in polystyrene tubes, and an aliquot of 25 µL of the erythrocyte suspensions was added to each tube. The final volume was 1 mL. The tubes were incubated at room temperature under rotatory conditions. Then, the tubes were centrifuged at 10,000 rpm for 5 min. The supernatants’ absorbance at 540 nm (Shimadzu UV-160A, Shimadzu, Duisburg, Germany) was compared with that of the positive (erythrocytes hemolyzed with distilled water) and negative (erythrocyte suspension in PBS at pH 7.4) controls. The degree of hemolysis was determined using the following equation: Hemolysis (%) = 100 × (Abs − Abs0)/(Abs100 − Abs0) where Abs, Abs0, and Abs100 are the absorbance of the test samples, of the suspension treated with isotonic phosphate–buffered saline (PBS), and of the suspension of complete hemolysis treated with distilled water, respectively. • In Vitro Essay Using Cell Cultures The murine Swiss albino fibroblasts (3T3) and the squamous cell carcinoma (A431) cell lines were obtained from Celltec UB. Cells were grown in DMEM medium (4.5 g/L glucose) supplemented with 10% (v/v) FBS, 2 mM L-glutamine, 100 U/mL penicillin, and 100 µg/mL streptomycin at 37 °C with 5% CO2. Cells were routinely cultured in 75 cm^2 culture flasks and were trypsinized using trypsin–EDTA when the cells reached approximately 80% confluence. The trypan blue assay, which allows for the direct identification and enumeration of the live (unstained) and dead (blue) cells in the cell population, was used to evaluate the viability of the cells in the cell suspension obtained. • - Cell Viability Assays Cell lines of 3T3 (1 × 10^5 cells/mL) and A431 (5 × 10^4 cells/mL) were grown at defined densities in the 60 central wells of a 96-well plate. The cells were incubated for 24 h in 5% CO2 at 37 °C. Then, the spent medium was removed, and the cells were incubated for 24 h, with their corresponding compound solutions (1 mg/mL) previously diluted in a minimum amount of DMF (dimethylformamide) and then in DMEM medium supplemented with 5% FBS (100 µL) at the required concentration range (80 or 250 µg/mL). […]

[1] = Hemolysis assay with human erythrocytes; format: cell-based; conditions: human, washed human erythrocyte suspension, pH 7.4, read-out: degree of hemolysis
Protocol: as §1, §2

[2] = system: A431 cell line (squamous cell carcinoma); experiment: Cell viability, MTT assay, A431; format: cell-based; conditions: for IC50: Homo sapiens; for SI (MTT), selectivity index: SI = IC50 (3T3)/IC50 (A431); for SI250, pseudo-selectivity index (MTT): 250 µg/mL, 24 h, A431 vs 3T3, MTT; for selective cytotoxicity, A431 in comparison with 3T3 cells: lower IC50 for A431 than 3T3
Protocol: (§3) Two different endpoints, 3-(4,5-dimethyl-2-thiazolyl)-2,5-diphenyltetrazolium bromide (MTT) and neutral red uptake (NRU), were used to assess differences in cell-induced cytotoxicity. […] In addition, NRU evaluates the interaction of these drugs with the plasmatic membrane. Cell responses were determined from the MTT [16] and NRU [17] assays, using the two proposed cell lines. Cytotoxicity assays were performed at concentrations equal to 80 and 250 µg/mL. The IC50 value, referring to the half-maximal inhibitory concentration, was determined as a key parameter in cytotoxicity studies (Table 1). It plays a crucial role in evaluating cell viability and assessing cellular responses to various drugs or toxins. For cases where IC50 values were below 80 µg/mL, additional studies at lower concentrations were conducted to accurately determine these values. […] The selectivity index (SI), used as a measurement of action against the tumor cell line in comparison with a normal cell line, was also included.
as §2, with “°C.” for “°C. Then, the spent medium was removed, and the cells were incubated for 24 h, with their corresponding compound solutions (1 mg/mL) previously diluted in a minimum amount of DMF (dimethylformamide) and then in DMEM medium supplemented with 5% FBS (100 µL) at the required concentration range (80 or 250 µg/mL).”

[3] = system: A431 cell line (squamous cell carcinoma); experiment: Cell viability, NRU assay, A431; format: cell-based, human; conditions: for IC50: Homo sapiens, A-431, 24 h, 24 h incubation, NRU endpoint, A431; for SI250, pseudo-selectivity index (NRU): 250 µg/mL, 24 h, A431 vs 3T3, NRU
Protocol: as §3
as §2, with “°C.” for “°C. Then, the spent medium was removed, and the cells were incubated for 24 h, with their corresponding compound solutions (1 mg/mL) previously diluted in a minimum amount of DMF (dimethylformamide) and then in DMEM medium supplemented with 5% FBS (100 µL) at the required concentration range (80 or 250 µg/mL).”

[4] = system: murine Swiss albino fibroblast (3T3) cell line; experiment: Cell viability, MTT assay, 3T3; format: cell-based; conditions: Mus musculus, 24 h, 24 h incubation, MTT endpoint
Protocol: as §3
as §2, with “°C.” for “°C. Then, the spent medium was removed, and the cells were incubated for 24 h, with their corresponding compound solutions (1 mg/mL) previously diluted in a minimum amount of DMF (dimethylformamide) and then in DMEM medium supplemented with 5% FBS (100 µL) at the required concentration range (80 or 250 µg/mL).”

[5] = system: murine Swiss albino fibroblast (3T3) cell line; experiment: Cell viability, NRU assay, 3T3; format: cell-based; conditions: Mus musculus, 24 h incubation, NRU endpoint
Protocol: as §3
as §2, with “°C.” for “°C. Then, the spent medium was removed, and the cells were incubated for 24 h, with their corresponding compound solutions (1 mg/mL) previously diluted in a minimum amount of DMF (dimethylformamide) and then in DMEM medium supplemented with 5% FBS (100 µL) at the required concentration range (80 or 250 µg/mL).”

[6] = system: squamous carcinoma cells (A431) in comparison with the fibroblast (3T3) cell line; design: method as in PMID 38731527; conditions: cited from earlier work
Zebrafish = conditions: cited from earlier work
[7] = A-431, 24 h, 24 h incubation, MTT endpoint, A431, read-out: IC50 (MTT) A431
[8] = A-431, A431 and 3T3, MTT and NRU, summarised in text, read-out: IC50 values

Row | Compound | change of hemolytic response as concentration increased (human erythrocytes) | hemolysis at 10 µg/mL [1] [%] | IC50 [2, 7] [µg/mL] | IC50 [2, 8] [µg/mL] | SI (MTT), selectivity index [2] | IC50 [3] [µg/mL] | IC50 [4] [µg/mL] | IC50 [5] [µg/mL] | SI250, pseudo-selectivity index (NRU) [3] | SI (NRU), selectivity index ([3]; SI = IC50 (3T3)/IC50 (A431), NRU) | IC50 (lowest values among five products) [6] [µg/mL] | acute toxicity (Zebrafish; Zebrafish embryos) [µg/mL] | SI250, pseudo-selectivity index (MTT) [2] | selective cytotoxicity, A431 in comparison with 3T3 cells [2] | acute toxicity (Zebrafish; Zebrafish) [µg/mL] | hemolysis at 80 µg/mL ([1]; 80 µg/mL) [%]
1 | CC(C)(C)N1C(=O)[C@@H](Cl)[C@@H]2CCCC[C@@H]21 [Compound 8] | doubled | 0.1 | 250 ± 1.78 (≈ 1090 µM) | > 250 | >1.0 | > 250 | > 250 | > 250 | – | – | – | – | – | – | – | –
2 | CC1CN(C(C)(C)C)C(=O)C1(Cl)Cl (stereo not shown) [Compound 4] | remained stable | – | > 250 | – | – | > 250 | > 250 | > 250 | – | – | – | – | – | – | – | –
3 | CC(C)(C)N1CC(CCl)C(Cl)(Cl)C1=O (stereo not shown) [Compound 2] | three- | 0.02 | > 250 | – | – | 232 ± 4.23 (≈ 896 µM) | > 250 | > 250 | highest SI250 values | >1.08 | 100 to 250 | – | – | – | – | –
4 | COc1cccc2c1C(=O)c1c(O)c3c(c(O)c1C2=O)C[C@@](O)(C(=O)CO)C[C@@H]3O[C@H]1C[C@H](N)[C@H](O)[C@H](C)O1 [doxorubicin] | – | – | – | – | – | – | – | – | – | – | – | 5.6 | – | – | – | –
5 | CC(C)(C)N1C(=O)[C@@H](Cl)[C@@H]2[C@H](Cl)CCC[C@@H]21 [Compound 3] | doubled | 0.1 | 250 ± 2.11 (≈ 946 µM) | – | – | > 250 | 183 ± 3.11 (≈ 694 µM) | > 250 | highest SI250 values | – | – | – | – | – | – | –
6 | CC(C)(C)N1CC(C)(C)C(Cl)(Cl)C1=O [Compound 7] | remained stable | – | 230 ± 2.54 (≈ 967 µM) | – | >1.08 | > 250 | > 250 | > 250 | – | – | – | – | above 1.5 | some selective cytotoxicity | – | –
7 | CC(=O)O[C@H]1C(=O)[C@@]2(C)[C@H]([C@H](OC(=O)c3ccccc3)[C@]3(O)C[C@H](OC(=O)[C@H](O)[C@@H](NC(=O)c4ccccc4)c4ccccc4)C(C)=C1C3(C)C)[C@]1(OC(C)=O)CO[C@@H]1C[C@@H]2O [taxol] | – | – | – | – | – | – | – | – | – | – | – | – | – | – | 1.05 | –
8 | C=C(Br)CN1CC(C)C(Cl)(Cl)C1=O (stereo not shown) [Compound 5] | – | – | 250 ± 1.32 (≈ 871 µM) | > 250 | – | > 250 | > 250 | 250 (≈ 871 µM) | – | – | – | – | – | – | – | –
9 | CC1CCN(C(C)(C)C)C(=O)C1(Cl)Cl (stereo not shown) [Compound 9] | fivefold | 0.1 | 242.9 ± 1.78 (≈ 1020 µM) | – | – | > 250 | > 250 | > 250 | – | – | – | – | above 1.5 | some selective cytotoxicity | – | ~0.7
10 | CC1CN(C2CCC(=O)CC2)C(=O)C1(Cl)Cl (stereo not shown) [Compound 6] | remained stable | – | > 250 | – | – | > 250 | > 250 | > 250 | highest SI250 values | – | – | – | – | – | – | –
11 | O=C1N(Cc2ccccc2)[C@H]2CCC[C@H](C2)C1(Cl)Cl [Compound 10] | remained stable | 0.02 | 238.3 ± 1.56 (≈ 799 µM) | – | – | > 250 | > 250 | > 250 | highest SI250 values | – | – | – | – | some selective cytotoxicity | – | –

From publication PMC12030062, “From In Vitro Cytotoxicity to In Vivo Zebrafish Assays: A Study on 3,3-Dichloro β-, γ- and δ-Lactams and Their Biological Activity Profiles” (Pharmaceuticals, 2025)
